Patent publication US10166235B2, “Kinetin/zeatin topical formulation” (Dow Pharmaceutical Sciences, Inc., priority 2013, dated 2019)
Each block holds one compound with its values, some of them ahead of it.

Assays:
[1] = Comparison with prior art formulations: dissolved kinetin or zeatin in GDM-12, Transcutol, isostearic acid and mixtures by HPLC; conditions: for Synergistic Increase in Solubility %: zeatin
Protocol: (§1) Kinetin was combined and mixed in separate beakers containing GDM-12, Transcutol, and Isostearic Acid, and the concentration of dissolved kinetin in each beaker was determined by HPLC. Kinetin was then combined and mixed in separate beakers containing GDM-12 and Transcutol (1:1) and containing GDM-12 and Isostearic acid.
as §1, with “Zeatin” for “Kinetin”, “zeatin” for “kinetin”

[2] = Solubility of kinetin or zeatin alone in GDM-12, GDO-12, isostearic acid and 50:50 mixtures, determined by HPLC; conditions: for calculated solubility: based on independent solubility in each solvent
Protocol: (§2) Solubilization of kinetin and zeatin was determined by HPLC.

[3] = Solubility of kinetin or zeatin when both kinetin and zeatin are dissolved, determined by HPLC
Protocol: as §2

[4] = distilled water / water; cited from earlier work
[5] = solvent GDM-12 + Isostearic Acid
[6] = solvent GDM-12 + Transcutol (1:1)
[7] = 50% GDM-12 and 50% isostearic acid
[8] = 50% GDO-12 and 50% isostearic acid

- Kinetin % w/w Experimental ([1]; solvent GDM-12): .164 % w/w
- Kinetin % w/w Calculated [1, 5]: .229 % w/w
- Kinetin % w/w Experimental [1, 5]: .422 % w/w
- Kinetin % w/w Calculated [1, 6]: .281 % w/w
- Kinetin % w/w Experimental [1, 6]: .287 % w/w
- Kinetin % w/w Experimental ([1]; solvent Isostearic Acid): .299 % w/w
- Kinetin % w/w Experimental ([1]; solvent Transcutol): .397 % w/w
SMILES: c1coc(CNc2ncnc3nc[nH]c23)c1 [Kinetin, N^6-furfuryladenine]

- increase over the calculated solubility [2, 7]: 109%
- calculated solubility [2, 7]: 0.21 wt %
- increase over the calculated solubility [2, 8]: 100%
- calculated solubility [2, 8]: 0.20 wt %
- solubility ([2]; in 50% GDM-12 and 50% isostearic acid): 0.44 % w/w
- solubility ([2]; in 50% GDO-12 and 50% isostearic acid): 0.40 % w/w
- solubility ([2]; in 100% GDM-12 (PEG-12 Glycerol dimyristate)): 0.12 % w/w
- solubility ([2]; in 100% GDO-12 (PEG-12 Glycerol dioleate)): 0.10 % w/w
- solubility ([2]; in 100% isostearic acid): 0.30 % w/w
- calculated solubility ([3]; both kinetin and zeatin combined, 50% GDM-12 and 50% isostearic acid): 0.19 wt %
- increase over the calculated solubility ([3]; both kinetin and zeatin dissolved, 50% GDM-12 and 50% isostearic acid): 121%
- solubility ([3]; both kinetin and zeatin dissolved, in 50% GDM-12 and 50% isostearic acid): 0.42 % w/w
- solubility ([3]; both kinetin and zeatin dissolved, in 100% GDM-12): 0.10 % w/w
- solubility ([3]; both kinetin and zeatin dissolved, in 100% isostearic acid): 0.28 % w/w
- Zeatin % w/w Experimental ([1]; solvent GDM-12): .119 % w/w
- Zeatin % w/w Calculated [1, 5]: .229 % w/w
- Zeatin % w/w Experimental [1, 5]: .440 % w/w
- Zeatin % w/w Calculated [1, 6]: .345 % w/w
- Zeatin % w/w Experimental [1, 6]: .365 % w/w
- Zeatin % w/w Experimental ([1]; solvent Isostearic Acid): .299 % w/w
- Zeatin % w/w Experimental ([1]; solvent Transcutol): .570 % w/w
- Synergistic Increase in Solubility % [1, 5]: 92%
- Synergistic Increase in Solubility % ([1]; solvent GDM-12 + Isostearic Acid, listed as zeatin): 92%
- Synergistic Increase in Solubility % [1, 6]: 0%
- Synergistic Increase in Solubility % ([1]; solvent GDM-12 + Transcutol (1:1), listed as zeatin): does not provide a synergistic increase
SMILES: C/C(=C\CNc1ncnc2nc[nH]c12)CO [Zeatin, (E)-2-methyl-4-(7H-purin-6-ylamino)but-2-en-1-ol]
- solubility in water [4]: practically insoluble
